From patent US20060134248A1, “Hop acids as a replacement for antibiotics in animal feed” (priority 2002, published 2006)
Marks after values point to notes of the source that are not given here.

Legend:
Settings in all cases: hop acids 2 ppm, monensin 6 ppm
total bacteria = experiment: In vitro microbe measurements: bacterial purine (measurement of total bacteria); format: cell-based
Excerpt: Proprionate is largely responsible for animal growth. […] There appears to be no effect on alfalfa protozoa and alfalfa bacterial purine by the beta acids. Again, reduction in protozoa and bacteria levels means more food and energy for animal growth.

Isotrichia = experiment: In vitro microbe measurements: protozoa count, Isotrichia
Entodiniomorph spp = experiment: In vitro microbe measurements: protozoa count, Entodiniomorph spp / Entodinia

CC[C@@]1([C@@H]2O[C@@H]([C@H]3O[C@@](O)(CO)[C@H](C)C[C@@H]3C)C[C@@H]2C)CC[C@H]([C@]2(C)CC[C@]3(C[C@H](O)[C@@H](C)[C@@H]([C@@H](C)[C@@H](OC)[C@H](C)C(=O)O)O3)O2)O1 [monensin]
Bacterial purines (total bacteria; alfalfa): 2.6^c mg/tube | Protozoa and bacterial purines versus control, in words (total bacteria; alfalfa): most effectively eliminate | Bacterial purines (total bacteria; barley): 1.5^b mg/tube | Bacterial purines (total bacteria; corn): 1.4^a Mg/tube | Protozoa, Isotrichia (Isotrichia; alfalfa): 0^c × 10^3 no/mL | Protozoa, Isotricha (Isotrichia; barley): 0 × 10^3 no/mL | Protozoa, Isotricha (Isotrichia; corn): 0.7 × 10^3 no/mL | Protozoa, Entodinia (Entodiniomorph spp; alfalfa): 6^c × 10^3 no/mL | Protozoa, Entodinia (Entodiniomorph spp; barley): 38^b × 10^3 no/mL | Protozoa, Entodinia (Entodiniomorph spp; corn): 28^bc × 10^3 no/mL
